{"source": "patent US6919380B2", "about": "“Derivatives of C2-substituted indan-1-ol systems for the prophylaxis or treatment of obesity” (Aventis Pharma Deutschland GmbH., priority 2001, dated 2005)", "key": {"female NMRI mice": {"system": "female NMRI mice", "test": "Anorectic action: cumulative evaporated milk consumption after removal of feed for 24 hours", "assay_type": "in vivo, mouse", "details": "dose 10 mg/kg (ip or po, not specified)", "method": "The activity of the compounds of the formula I was assayed as follows: […]\nThe anorectic action was tested on female NMRI mice. After removal of feed for 24 hours, the preparation to be tested was administered intraperitoneally (ip) or by gavage (po). The animals were housed singly and, with free access to drinking water, they were offered evaporated milk 30 minutes after administration of the preparation. The consumption of evaporated milk was determined and the general behavior of the animals was monitored every half an hour for 7 hours. The measured milk consumption was compared to that of vehicle-treated control animals."}}, "data": [{"smiles": "CC(=O)OC1c2ccc(Cl)cc2CC1S(C)(=O)=O", "note": "(stereo not drawn) [Example 1, 1-Acetoxy-5-chloro-2-methylsulfonylindane]", "values": [{"measurement": "Reduction in cumulative milk consumption as % of the control", "setting": "female NMRI mice; compared with control animals", "result": 81, "unit": "%"}, {"measurement": "cumulative milk consumption by treated animals", "setting": "female NMRI mice; milk offered 30 minutes after administration, monitored for 7 hours", "result": "5/0.28 ml"}, {"measurement": "melting point", "result": 136, "unit": "°C"}]}]}
